Laboratory results published in PubChem BioAssay AID2060505 (Molecular Pharmacology Branch, DTP, NCI, 2025).
pIC50: −log10 of the molar value.

System: 633275-114-R-J1-PDC complex spheroids, viability
Assay: Anticancer human tumor 633275-114-R-J1-PDC patient-derived endometrial adenocarcinoma cell line growth inhibition [GQUAD]
Details: for pIC50: curve of first compound; for viability, T/C: stronger effect = lower value
Procedure, shortened: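 Multi-cell-type spheroids of tumor cells with HUVEC and mesenchymal stem cells, treated with drug combinations. Concentrations descend in half-log steps from near clinical Cmax, or from 10 microM where Cmax is unknown; viability read-out.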

[1] = second compound 0.0316 µM, first compound 0.0316 µM
[2] = second compound 0.0316 µM, first compound 0.1 µM
[3] = second compound 0.0316 µM, first compound 0.316 µM
[4] = second compound 0.0316 µM, first compound 1 µM
[5] = second compound 0.0316 µM, first compound 3.16 µM
[6] = second compound 0.0316 µM, first compound 10 µM
[7] = second compound 0.1 µM, first compound 0.0316 µM
[8] = second compound 0.1 µM, first compound 0.1 µM
[9] = second compound 0.1 µM, first compound 0.316 µM
[10] = second compound 0.1 µM, first compound 1 µM
[11] = second compound 0.1 µM, first compound 3.16 µM
[12] = second compound 0.1 µM, first compound 10 µM
[13] = second compound 0.316 µM, first compound 0.0316 µM
[14] = second compound 0.316 µM, first compound 0.1 µM
[15] = second compound 0.316 µM, first compound 0.316 µM
[16] = second compound 0.316 µM, first compound 1 µM
[17] = second compound 0.316 µM, first compound 3.16 µM
[18] = second compound 0.316 µM, first compound 10 µM
[19] = second compound 1 µM, first compound 0.0316 µM
[20] = second compound 1 µM, first compound 0.1 µM
[21] = second compound 1 µM, first compound 0.316 µM
[22] = second compound 1 µM, first compound 1 µM
[23] = second compound 1 µM, first compound 3.16 µM
[24] = second compound 1 µM, first compound 10 µM
[25] = second compound 3.16 µM, first compound 0.0316 µM
[26] = second compound 3.16 µM, first compound 0.1 µM
[27] = second compound 3.16 µM, first compound 0.316 µM
[28] = second compound 3.16 µM, first compound 1 µM
[29] = second compound 3.16 µM, first compound 3.16 µM
[30] = second compound 3.16 µM, first compound 10 µM
[31] = second compound 10 µM, first compound 0.0316 µM
[32] = second compound 10 µM, first compound 0.1 µM
[33] = second compound 10 µM, first compound 0.316 µM
[34] = second compound 10 µM, first compound 1 µM
[35] = second compound 10 µM, first compound 3.16 µM
[36] = second compound 10 µM, first compound 10 µM
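Also: spheroids exposed to the agents for seven days.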
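For viability, T/C in this document: percent of DMSO vehicle control viability which is 100%.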

## COc1cccc2c1C(=O)c1c(O)c3c(c(O)c1C2=O)CC(O)(C(=O)CO)CC3OC1CC(N)C(O)C(C)O1 (stereo not drawn) + Cc1[nH]c2ccc(F)cc2c1-c1nc2c3cccnc3c3ncccc3c2[nH]1
Second compound 0.0316 µM
  pIC50: 7.05
Second compound 0.1 µM
  pIC50: 7.02
Second compound 0.316 µM
  pIC50: 7.08
Second compound 1 µM
  pIC50: 7.14
Second compound 3.16 µM
  pIC50: 7.34
Second compound 10 µM
  pIC50: 7.40
[1]
  viability, T/C: 64.4%
[2]
  viability, T/C: 47.5%
[3]
  viability, T/C: 32%
[4]
  viability, T/C: 21.5%
[5]
  viability, T/C: 2.36%
[6]
  viability, T/C: 1.69%
[7]
  viability, T/C: 65.3%
[8]
  viability, T/C: 46.2%
[9]
  viability, T/C: 35.3%
[10]
  viability, T/C: 20.6%
[11]
  viability, T/C: 1.91%
[12]
  viability, T/C: 1.66%
[13]
  viability, T/C: 62.5%
[14]
  viability, T/C: 46%
[15]
  viability, T/C: 32.3%
[16]
  viability, T/C: 20.3%
[17]
  viability, T/C: 2.16%
[18]
  viability, T/C: 1.4%
[19]
  viability, T/C: 62.2%
[20]
  viability, T/C: 44%
[21]
  viability, T/C: 30.6%
[22]
  viability, T/C: 20.6%
[23]
  viability, T/C: 1.92%
[24]
  viability, T/C: 1.57%
[25]
  viability, T/C: 54.4%
[26]
  viability, T/C: 40.2%
[27]
  viability, T/C: 30.9%
[28]
  viability, T/C: 18.6%
[29]
  viability, T/C: 2.97%
[30]
  viability, T/C: 1.41%
[31]
  viability, T/C: 52.9%
[32]
  viability, T/C: 39.7%
[33]
  viability, T/C: 30.1%
[34]
  viability, T/C: 19.4%
[35]
  viability, T/C: 2.39%
[36]
  viability, T/C: 1.46%

## Cn1ncnc1[C@H]1c2n[nH]c(=O)c3cc(F)cc(c23)N[C@@H]1c1ccc(F)cc1 + Cc1cnc(CNC(=O)c2c(=O)c3ccc(N4CCCN(C)CC4)nc3n3c2sc2ccccc23)cn1
Second compound 0.0316 µM
  pIC50: 6.94
Second compound 0.1 µM
  pIC50: > 9.00
Second compound 0.316 µM
  pIC50: > 9.00
Second compound 1 µM
  pIC50: > 9.00
Second compound 3.16 µM
  pIC50: > 9.00
Second compound 10 µM
  pIC50: > 9.00
Second compound 0.0316 µM, first compound 0.000999 µM
  viability, T/C: 64%
Second compound 0.0316 µM, first compound 0.00316 µM
  viability, T/C: 63.3%
Second compound 0.0316 µM, first compound 0.00999 µM
  viability, T/C: 63.2%
[1]
  viability, T/C: 58.9%
Second compound 0.0316 µM, first compound 0.0999 µM
  viability, T/C: 46.5%
[3]
  viability, T/C: 44.3%
Second compound 0.1 µM, first compound 0.000999 µM
  viability, T/C: 47.9%
Second compound 0.1 µM, first compound 0.00316 µM
  viability, T/C: 51.3%
Second compound 0.1 µM, first compound 0.00999 µM
  viability, T/C: 50.2%
[7]
  viability, T/C: 42.2%
Second compound 0.1 µM, first compound 0.0999 µM
  viability, T/C: 39.3%
[9]
  viability, T/C: 38.2%
Second compound 0.316 µM, first compound 0.000999 µM
  viability, T/C: 41.9%
Second compound 0.316 µM, first compound 0.00316 µM
  viability, T/C: 43.7%
Second compound 0.316 µM, first compound 0.00999 µM
  viability, T/C: 43.2%
[13]
  viability, T/C: 37.7%
Second compound 0.316 µM, first compound 0.0999 µM
  viability, T/C: 37.6%
[15]
  viability, T/C: 34.8%
Second compound 1 µM, first compound 0.000999 µM
  viability, T/C: 39.1%
Second compound 1 µM, first compound 0.00316 µM
  viability, T/C: 37.4%
Second compound 1 µM, first compound 0.00999 µM
  viability, T/C: 37.9%
[19]
  viability, T/C: 35%
Second compound 1 µM, first compound 0.0999 µM
  viability, T/C: 34%
[21]
  viability, T/C: 34%
Second compound 3.16 µM, first compound 0.000999 µM
  viability, T/C: 31.8%
Second compound 3.16 µM, first compound 0.00316 µM
  viability, T/C: 38.6%
Second compound 3.16 µM, first compound 0.00999 µM
  viability, T/C: 36.6%
[25]
  viability, T/C: 36.7%
Second compound 3.16 µM, first compound 0.0999 µM
  viability, T/C: 29.4%
[27]
  viability, T/C: 29.8%
Second compound 10 µM, first compound 0.000999 µM
  viability, T/C: 32.8%
Second compound 10 µM, first compound 0.00316 µM
  viability, T/C: 31%
Second compound 10 µM, first compound 0.00999 µM
  viability, T/C: 28.4%
[31]
  viability, T/C: 30.9%
Second compound 10 µM, first compound 0.0999 µM
  viability, T/C: 28.9%
[33]
  viability, T/C: 26.6%

## C=CC(=O)N1CCN(c2nc(=O)n(-c3c(C)ccnc3C(C)C)c3nc(-c4c(O)cccc4F)c(F)cc23)C(C)C1 (stereo not drawn) + CN(C)c1ccc(Nc2c3ccc(NC(=O)CCN4CCCC4)cc3nc3cc(NC(=O)CCN4CCCC4)ccc23)cc1
Second compound 0.0316 µM
  pIC50: < 5.00
Second compound 0.1 µM
  pIC50: < 5.00
Second compound 0.316 µM
  pIC50: < 5.00
Second compound 1 µM
  pIC50: < 5.00
Second compound 3.16 µM
  pIC50: < 5.00
Second compound 10 µM
  pIC50: > 7.50
[1]
  viability, T/C: 109%
[2]
  viability, T/C: 88%
[3]
  viability, T/C: 94.9%
[4]
  viability, T/C: 92.5%
[5]
  viability, T/C: 106%
[6]
  viability, T/C: 81.8%
[7]
  viability, T/C: 98.1%
[8]
  viability, T/C: 92%
[9]
  viability, T/C: 97.7%
[10]
  viability, T/C: 92.6%
[11]
  viability, T/C: 97.2%
[12]
  viability, T/C: 76%
[13]
  viability, T/C: 92.8%
[14]
  viability, T/C: 95.4%
[15]
  viability, T/C: 110%
[16]
  viability, T/C: 110%
[17]
  viability, T/C: 98.9%
[18]
  viability, T/C: 76%
[19]
  viability, T/C: 95.5%
[20]
  viability, T/C: 88.6%
[21]
  viability, T/C: 100%
[22]
  viability, T/C: 97.5%
[23]
  viability, T/C: 104%
[24]
  viability, T/C: 65.2%
[25]
  viability, T/C: 84.2%
[26]
  viability, T/C: 85.1%
[27]
  viability, T/C: 92.1%
[28]
  viability, T/C: 84.5%
[29]
  viability, T/C: 78.1%
[30]
  viability, T/C: 51.3%
[31]
  viability, T/C: 34.3%
[32]
  viability, T/C: 34.3%
[33]
  viability, T/C: 35.2%
[34]
  viability, T/C: 41%
[35]
  viability, T/C: 37.3%
[36]
  viability, T/C: 15.4%

## O=C(c1cc(Cc2n[nH]c(=O)c3ccccc23)ccc1F)N1CCN(C(=O)C2CC2)CC1 + CN(C)c1ccc(Nc2c3ccc(NC(=O)CCN4CCCC4)cc3nc3cc(NC(=O)CCN4CCCC4)ccc23)cc1
Second compound 0.0316 µM
  pIC50: 5.00
Second compound 0.1 µM
  pIC50: 5.00
Second compound 0.316 µM
  pIC50: < 5.00
Second compound 1 µM
  pIC50: < 5.00
Second compound 3.16 µM
  pIC50: 5.27
Second compound 10 µM
  pIC50: > 7.50
[1]
  viability, T/C: 88.7%
[2]
  viability, T/C: 93.8%
[3]
  viability, T/C: 95%
[4]
  viability, T/C: 80%
[5]
  viability, T/C: 81.6%
[6]
  viability, T/C: 49.2%
[7]
  viability, T/C: 95.5%
[8]
  viability, T/C: 98.1%
[9]
  viability, T/C: 92.7%
[10]
  viability, T/C: 79.7%
[11]
  viability, T/C: 69%
[12]
  viability, T/C: 49.2%
[13]
  viability, T/C: 91.1%
[14]
  viability, T/C: 99.8%
[15]
  viability, T/C: 88.4%
[16]
  viability, T/C: 76.1%
[17]
  viability, T/C: 75.8%
[18]
  viability, T/C: 58.4%
[19]
  viability, T/C: 104%
[20]
  viability, T/C: 82.9%
[21]
  viability, T/C: 78.7%
[22]
  viability, T/C: 78.3%
[23]
  viability, T/C: 69.8%
[24]
  viability, T/C: 47.8%
[25]
  viability, T/C: 75.5%
[26]
  viability, T/C: 80.6%
[27]
  viability, T/C: 69.6%
[28]
  viability, T/C: 65.5%
[29]
  viability, T/C: 62.9%
[30]
  viability, T/C: 38%
[31]
  viability, T/C: 25.3%
[32]
  viability, T/C: 26.1%
[33]
  viability, T/C: 27.1%
[34]
  viability, T/C: 25.4%
[35]
  viability, T/C: 29%
[36]
  viability, T/C: 21.1%
